Experimental data from US20120100109A1, “Method for increasing the replication of oncolytic HSVs in highly resistant tumor cells using mTOR pathway and PI3K inhibitors” (priority 2010, published 2012).

Legend:
[1] = test system: resistant tumor cells (EC9706, MCF-7, HeLa); assay: Baco-1 virus yield in resistant tumor cells with or without rapamycin (FIG. 2B, 2C); format: cell-based
Description: FIG. 2. […] Virus yield, as determined by plaque assay. Values represent the mean±SD of triplicate experiments.
(§1) A. EC9706 cells were either preincubated with rapamycin overnight (Pre-Inf) or incubated with the drug during the virus infection (During-Inf). They were then infected with Baco-1 at 0.1 pfu/cell and for 72 h. Fold increase in virus yield was calculated by dividing […]. […] B. MCF-7 and HeLa cells were infected with Baco-1 at 0.01 pfu/cell for 1 h. Then the cells were cultured in medium without (control) or with rapamycin at a concentration of 100 nM for 72 h before harvesting for virus titration.

[2] = test system: EC9706 cells; assay: Yield of other HSVs (17+, FusOn-H2, ApE-Mir-3) in EC9706 cells with or without rapamycin (FIG. 4); format: cell-based, human; settings: EC9706, 0.1 pfu/cell, rapamycin 100 nM
Excerpt: In another preferred embodiment of the present invention the potentiating effect of rapamycin on virus replication in highly resistant tumor cells is applied to other oncolytic HSVs, including strain 17 (17^+), a wild-type HSV-1, FusOn-H2, which is constructed from an HSV-2 by mutating the N-terminal region of the ICP 10 gene (Fu, et al., A Mutant Type 2 Herpes Simplex Virus Deleted for the Protein Kinase Domain of the ICP10 Gene Is a Potent Oncolytic Virus, Mol. Ther. 2006; 13:882-90), and ApE-Mir-3, an HSV-1-based oncolytic virus in which the glycoprotein H (gH) gene is controlled by tissue-specific microRNAs (miRNAs), including let-7 and mir-122. To that end, EC9706 cells are infected with these viruses at 0.1 pfu/cell for 1 h and then cultured the cells in media with or without rapamycin at a concentration of 100 nM. […] Replication of the HSV-2-based oncolytic virus, FusOn-H2, is increased by approximately 5-fold, similar to those seen with Baco-1.
EC9706 cells were infected with three other types of oncolytic HSVs, including FusOn-H2 (an oncolytic HSV derived from HSV-2, while Baco-1 was derived from HSV-1) and Ape-Mir3 (an oncolytic HSV specifically targets to hepatocellular carcinoma), at 0.1 pfu/cell and then incubated with medium without or with rapamycin (100 nM) for 72 h before harvesting for virus titration.

[3] = test system: A549; assay: Baco-1 virus yield with or without rapamycin, A549 cells; format: cell-based; settings: A549 (lung); Baco-1 yield, well with rapamycin / well without
[4] = test system: SW480; assay: Baco-1 virus yield with or without rapamycin, SW480 cells; format: cell-based; settings: SW480 (colon); Baco-1 yield, well with rapamycin / well without
[5] = test system: MCF-7; assay: Baco-1 virus yield with or without rapamycin, MCF-7 cells; format: cell-based, human; settings: MCF-7 (breast); Baco-1 yield, well with rapamycin / well without
Description: as §1

[6] = test system: DLD-1; assay: Baco-1 virus yield with or without rapamycin, DLD-1 cells; format: cell-based; settings: DLD-1 (colon); Baco-1 yield, well with rapamycin / well without
[7] = test system: Hep3B; assay: Baco-1 virus yield with or without rapamycin, Hep3B cells; format: cell-based; settings: Hep3B (liver); Baco-1 yield, well with rapamycin / well without
[8] = test system: PANC-1; assay: Baco-1 virus yield with or without rapamycin, PANC-1 cells; format: cell-based; settings: PANC-1 (pancreas); Baco-1 yield, well with rapamycin / well without
[9] = test system: HCT116; assay: Baco-1 virus yield with or without rapamycin, HCT116 cells; format: cell-based; settings: HCT116 (colon); Baco-1 yield, well with rapamycin / well without
[10] = test system: HepG2; assay: Baco-1 virus yield with or without rapamycin, HepG2 cells; format: cell-based; settings: HepG2 (liver); Baco-1 yield, well with rapamycin / well without
[11] = test system: EC9706 cells; assay: Baco-1 virus yield (plaque assay) with or without drug, EC9706 cells; format: cell-based, human
Description: as §1

[12] = test system: HeLa; assay: Baco-1 virus yield with or without rapamycin, HeLa cells; format: cell-based; settings: HeLa (cervix); Baco-1 yield, well with rapamycin / well without
Description: as §1

[13] = test system: 293T; assay: Baco-1 virus yield with or without rapamycin, 293T cells; format: cell-based; settings: 293T (kidney); Baco-1 yield, well with rapamycin / well without
[14] = test system: MDA-MB-231; assay: Baco-1 virus yield with or without rapamycin, MDA-MB-231 cells; format: cell-based; settings: MDA-MB-231 (breast); Baco-1 yield, well with rapamycin / well without
[15] = test system: HuH-7; assay: Baco-1 virus yield with or without rapamycin, HuH-7 cells; format: cell-based; settings: HuH-7 (liver); Baco-1 yield, well with rapamycin / well without
[16] = test system: MPanc-96; assay: Baco-1 virus yield with or without rapamycin, MPanc-96 cells; format: cell-based; settings: MPanc-96 (pancreas); Baco-1 yield, well with rapamycin / well without
[17] = test system: MDA-MB-435; assay: Baco-1 virus yield with or without rapamycin, MDA-MB-435 cells; format: cell-based; settings: MDA-MB-435 (breast); Baco-1 yield, well with rapamycin / well without
[18] = test system: highly resistant tumor cells (EC9706, MCF-7 and Hela cells); assay: Spread and replication of Baco-1 (GFP) in highly resistant tumor cell monolayers (FIG. 3B, 3C); format: cell-based; settings: infected cells incubated with inhibitor
Description: Because Baco-1 contains the Green Fluorescent Protein (GFP) gene, it is possible to visualize GFP expression during virus infection and thus monitor the spread of virus among tumor cells.
The effect of PI3K inhibitor, LY294002, on the replication of Baco-1 is examined in these cells. The three highly resistant tumor cell lines are infected with Baco-1, with or without the presence of LY294002 in the medium.
In the same experiment, three highly resistant tumor cells (EC9706, MCF-7 and Hela cells) are infected with Baco-1 at 0.01 pfu/cell and incubated without or with rapamycin at a concentration of 100 nM, or LY294002 at 50 μM concentration.

Structure (SMILES): CO[C@H]1C[C@@H]2CC[C@@H](C)[C@@](O)(O2)C(=O)C(=O)N2CCCC[C@H]2C(=O)O[C@H]([C@H](C)C[C@@H]2CC[C@@H](O)[C@H](OC)C2)CC(=O)[C@H](C)/C=C(\C)[C@@H](O)[C@@H](OC)C(=O)[C@H](C)C[C@H](C)/C=C/C=C/C=C/1C [rapamycin]
- Fold increase in virus yield ([1]; MCF-7 and HeLa cells, Baco-1 0.01 pfu/cell, rapamycin 100 nM, 72 h, FIG. 2B): 3-5 fold
- Virus yield in the presence of rapamycin ([1]; resistant tumor cells, Baco-1, FIG. 2C): ~5×10^6 pfu
- Increase in replication of ApE-Mir-3 [2]: 2.5 fold
- Increase in replication of FusOn-H2 [2]: approximately 5 fold
- Increase in virus yield of strain 17+ (wild-type HSV-1) [2]: more than 10 fold
- Increase in yield of other oncolytic HSVs (pooled statement) ([2]; 72 h): 3-10 folds
- Fold of change in virus yield [3]: 0.42
- Fold of change in virus yield [4]: 5.31
- Fold of change in virus yield [5]: 4.86
- Fold of change in virus yield [6]: 1.02
- Fold of change in virus yield [7]: 1.10
- Fold of change in virus yield [8]: 0.99
- Fold of change in virus yield [9]: 0.5
- Fold of change in virus yield [10]: 1.04
- Fold of change in virus yield ([11]; EC9706 (esophagus), Baco-1 yield, well with rapamycin / well without): 5.98
- Fold increase in virus yield ([11]; EC9706 cells, Baco-1 0.1 pfu/cell, 72 h, drug in the medium, FIG. 2A): ~6 fold
- Fold of change in virus yield [12]: 3.0
- Fold of change in virus yield [13]: 8.01
- Fold of change in virus yield [14]: 0.87
- Fold of change in virus yield [15]: 0.8
- Fold of change in virus yield [16]: 0.55
- Fold of change in virus yield [17]: 0.6

Structure (SMILES): CC[n+]1c(/C=C/N(C)c2ccccc2)n(-c2ccccc2)c2ccc(-c3nc4ccccc4s3)cc21.[I-] [Akt Inhibitor IV]
- Effect on Baco-1 replication [18]: does not result in any significant increase in Baco-1 replication
